# Measured values reported in ChEMBL document CHEMBL4622928, “Discovery of 5-(4-methylpiperazin-1-yl)-2-nitroaniline derivatives as a new class of SIRT6 inhibitors” (Bioorg Med Chem Lett, 2020).
# Molecular target: NAD-dependent protein deacylase sirtuin-6 (Homo sapiens, UniProt Q8N6T7)
# Test: Inhibition of SIRT6 (unknown origin) using Ac-RYQK(Ac)-AMC as substrate by Fluor de Lys assay
# Chain of NAD-dependent protein deacylase sirtuin-6 (Q8N6T7 whole entry): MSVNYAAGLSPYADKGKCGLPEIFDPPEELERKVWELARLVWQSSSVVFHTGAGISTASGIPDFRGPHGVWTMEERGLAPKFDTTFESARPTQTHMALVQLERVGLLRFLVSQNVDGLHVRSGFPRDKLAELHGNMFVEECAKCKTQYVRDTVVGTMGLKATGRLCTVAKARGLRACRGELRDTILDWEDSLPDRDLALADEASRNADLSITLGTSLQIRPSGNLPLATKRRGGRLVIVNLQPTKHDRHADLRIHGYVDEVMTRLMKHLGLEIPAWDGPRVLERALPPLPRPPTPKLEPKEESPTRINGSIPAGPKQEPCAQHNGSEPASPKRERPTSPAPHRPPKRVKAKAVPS
row,Structure (SMILES),IC50
1,CN1CCN(c2ccc([N+](=O)[O-])c(O)c2)CC1,11 µM
2,CN1CCN(c2ccc([N+](=O)[O-])c(NCc3ccccc3)c2)CC1,12.5 µM
3,CN1CCN(c2ccc([N+](=O)[O-])c(C(F)(F)F)c2)CC1,21.1 µM
4,COC(=O)c1cc(N2CCN(C)CC2)ccc1[N+](=O)[O-],9.46 µM
5,CN1CCN(c2ccc([N+](=O)[O-])c(C(=O)Nc3cccc4ccccc34)c2)CC1,16.8 µM
6,CN1CCN(c2ccc([N+](=O)[O-])cc2)CC1,21.9 µM
7,CN1CCN(c2ccc([N+](=O)[O-])c(NC(=O)c3cc(Cl)nc4ccccc34)c2)CC1,12.4 µM
8,COc1cc(N2CCN(C)CC2)ccc1[N+](=O)[O-],9.09 µM
9,CN1CCN(c2ccc([N+](=O)[O-])c(C(=O)Nc3ccc(Oc4ccccc4)cc3)c2)CC1,20.9 µM
10,CN1CCN(c2ccc([N+](=O)[O-])c(C(=O)NCc3ccccc3)c2)CC1,17.5 µM
